Measured values: patent publication US7745645B2, “Sulfonamide derivatives of xanthene compounds” (Pierce Biotechnology, Inc., priority 2007, dated 2010)

System: A549 cells
Experiment: High Content Screening measurement of p53 induction
Format: cell-based
Settings: 5 μM camptothecin, 18-20 hours
Protocol: Any of the above described compounds are conjugated to antibodies and used for HCS measurement of p53 induction. A549 cells are seeded at 5,000 cells/well on 96 well microplates one day before treating them with different concentrations of camptothecin. In the presence of the drug, cells are incubated for 18-20 hours at 37° C., 5% CO2 in a humidified incubator. Cells are then fixed with 4% paraformaldehyde, permeabilized with 0.1% Triton X-100, and then labeled with rabbit p53 primary antibody and goat-anti-rabbit-conjugate of one of the above-described compounds. Cell nuclei are labeled with Hoechst 33342. The samples are imaged and quantitatively analyzed on an ArrayScan® HCS Reader (Cellomics, Inc. Pittsburgh Pa.). […] Camptothecin treated cells show bright p53 labeling in the nuclei.

CC[C@@]1(O)C(=O)OCc2c1cc1n(c2=O)Cc2cc3ccccc3nc2-1 [camptothecin]
p53 induction (fluorescence images): p53 induction in the nucleus
